Test results reported in PubChem BioAssay AID182 (DTP/NCI, 2004).
Toxic doses and inconclusive results are not listed. Starred links: 1 amine or outer side, 2 acyl side, 3 side chain; linkers in the order of their positions; H or OH if unused. Positions of bridges follow the written chain, without caps; N, C: chain ends. Non-standard residues stand in square brackets, D forms with d. Residues, ends and D or L forms follow the SMILES beside them. Chains are numbered I, II in the order given. Actinocin(9to1) = Cc1c2oc3c(C)ccc(C(=O)[*:1])c3nc-2c(C(=O)[*:2])c(N)c1=O; NMeV = CN[CH](C(=O)O)C(C)C; Aze = O=C(O)[CH]1CCN1; Sar = CNCC(=O)O

System: BDF1 mice, P388/ADR leukemia ip, median survival T/C
Assay: NCI In Vivo Anticancer Drug Screen. Data for tumor model P388 Leukemia resistant to Adriamycin; NSC 123127, Developed at Scr 06 and 41 (intraperitoneal) in B6D2F1 (BDF1) mice
Details: endpoint: median survival time, higher = longer survival
Procedure: The antitumor activity of compounds was measured in mice bearing transplantable tumors. Survival or tumor size were measured and the results are expressed as the measurement made in the treated group (T) divided by the measurement made in the vehicle treated control group (C). The tumor model used in this assay is P388 Leukemia resistant to Adriamycin; NSC 123127, Developed at Scr 06 and 41 (intraperitoneal) in B6D2F1 (BDF1) mice

[1] = dose: 1.44 mg/kg/injection, schedule: Q04DX003 (ip), vehicle: water
[2] = dose: 2.4 mg/kg/injection, schedule: Q04DX003 (ip), vehicle: water

With Cc1c2oc3c(C)ccc(C(=O)NC4C(=O)NC(C(C)C)C(=O)N5CCC5C(=O)N(C)CC(=O)N(C)C(C(C)C)C(=O)OC4C)c3nc-2c(C(=O)NC2C(=O)NC(C(C)C)C(=O)N3CCC3C(=O)N(C)CC(=O)N(C)C(C(C)C)C(=O)OC2C)c(N)c1=O (stereo not given) (I: TV[Aze][Sar][NMeV] / II: TV[Aze][Sar][NMeV]; ester I:1-I:C, II:1-II:C; linker I:N-II:N via Actinocin(9to1); configuration not given here) the T/C (dose: 216.0 micrograms/kg/injection, schedule: Q01DX003 (ip), vehicle: saline + alcohol) was 110 % of control, the T/C (dose: 360.0 micrograms/kg/injection, schedule: Q01DX003 (ip), vehicle: saline + alcohol) was 103 % of control and the T/C (dose: 600.0 micrograms/kg/injection, schedule: Q01DX003 (ip), vehicle: saline + alcohol) was 104 % of control. For the same compound, the T/C (dose: 1000.0 micrograms/kg/injection, schedule: Q01DX003 (ip), vehicle: saline + alcohol) was 86 % of control.
O=P1(N(CCCl)CCCl)NCCCO1 (stereo not given) was tested, and the T/C (dose: 108.0 mg/kg/injection, schedule: Q01DX001 (ip), vehicle: saline) was 476 % of control and the T/C (dose: 180.0 mg/kg/injection, schedule: Q01DX001 (ip), vehicle: saline) was 475 % of control.
With O=C1N[C@@H]([C@H]2CC[C@H](Cl)CN2)C(=O)N[C@H]1[C@H]1CC[C@H](Cl)CN1 the T/C [1] was 158 % of control, the T/C [2] was 213 % of control and the T/C (dose: 4.0 mg/kg/injection, schedule: Q04DX003 (ip), vehicle: water) was 221 % of control. For the same compound, the T/C (dose: 6.67 mg/kg/injection, schedule: Q04DX003 (ip), vehicle: water) was 122 % of control.
CC[C@H]1CN2CCc3cc(OC)c(OC)cc3[C@@H]2C[C@@H]1C[C@@H]1c2cc(OC)c(OC)cc2CCN1CCN(CCCl)CCCl was tested, and the T/C (dose: 4.3 mg/kg/injection, schedule: Q04DX003 (ip), vehicle: saline with Tween-80) was 119 % of control and the T/C (dose: 7.2 mg/kg/injection, schedule: Q04DX003 (ip), vehicle: saline with Tween-80) was 119 % of control.
For O=NN(CCCl)C(=O)NCCCl, the T/C (dose: 13.0 mg/kg/injection, schedule: Q01DX001 (ip), vehicle: saline + alcohol) was 169 % of control, the T/C (dose: 21.6 mg/kg/injection, schedule: Q01DX001 (ip), vehicle: saline + alcohol) was 499 % of control and the T/C (dose: 36.0 mg/kg/injection, schedule: Q01DX001 (ip), vehicle: saline + alcohol) was 499 % of control.
With COC1=C(N)C(=O)c2nc(-c3nc(C(=O)O)c(C)c(-c4ccc(OC)c(OC)c4O)c3N)ccc2C1=O the T/C (dose: 144.0 micrograms/kg/injection, schedule: Q04DX003 (ip), vehicle: alkali diluted with saline) was 120 % of control, the T/C (dose: 240.0 micrograms/kg/injection, schedule: Q04DX003 (ip), vehicle: alkali diluted with saline) was 120 % of control and the T/C (dose: 400.0 micrograms/kg/injection, schedule: Q04DX003 (ip), vehicle: alkali diluted with saline) was 122 % of control. For the same compound, the T/C (dose: 667.0 micrograms/kg/injection, schedule: Q04DX003 (ip), vehicle: alkali diluted with saline) was 121 % of control.
In the case of COc1cccc2c1C(=O)c1c(O)c3c(c(O)c1C2=O)C[C@@](O)(/C(C)=N/NC(=O)c1ccccc1)C[C@@H]3OC1CC(N)C(O)C(C)O1 (stereo not given in full), the T/C (dose: 6.5 mg/kg/injection, schedule: Q04DX003 (ip), vehicle: water) is reported as 107 % of control, the T/C (dose: 10.8 mg/kg/injection, schedule: Q04DX003 (ip), vehicle: water) is reported as 115 % of control and the T/C (dose: 18.0 mg/kg/injection, schedule: Q04DX003 (ip), vehicle: water) is reported as 105 % of control.
For N[C@H](C(=O)O)[C@@H]1CC(Cl)=NO1, the T/C (dose: 36.0 mg/kg/injection, schedule: Q04DX003 (ip), vehicle: saline) was 122 % of control.
For N[C@@H](Cc1ccc(N(CCCl)CCCl)cc1)C(=O)O, the T/C (dose: 3.6 mg/kg/injection, schedule: Q01DX001 (ip), vehicle: saline) was 313 % of control, the T/C (dose: 6.0 mg/kg/injection, schedule: Q01DX001 (ip), vehicle: saline) was 507 % of control and the T/C (dose: 10.0 mg/kg/injection, schedule: Q01DX001 (ip), vehicle: saline) was 507 % of control. For the same compound, the T/C (dose: 16.7 mg/kg/injection, schedule: Q01DX001 (ip), vehicle: saline) was 406 % of control.
In the case of Cc1c(N)nc([C@H](CC(N)=O)NC[C@H](N)C(N)=O)nc1C(=O)N[C@H](C(=O)N[C@H](C)[C@@H](O)[C@H](C)C(=O)N[C@H](C(=O)NCCc1nc(-c2nc(C(=O)NCCC[S+](C)C)cs2)cs1)[C@@H](C)O)C(OC1OC(CO)C(O)C(O)C1OC1OC(CO)C(O)C(OC(N)=O)C1O)c1cnc[nH]1 (stereo not given in full), the T/C (dose: 2.88 mg/kg/injection, schedule: Q01DX009 (ip), vehicle: saline) is reported as 105 % of control, the T/C (dose: 4.8 mg/kg/injection, schedule: Q01DX009 (ip), vehicle: saline) is reported as 107 % of control and the T/C (dose: 6.5 mg/kg/injection, schedule: Q01DX009 (ip), vehicle: saline) is reported as 110 % of control. The T/C (dose: 8.0 mg/kg/injection, schedule: Q01DX009 (ip), vehicle: saline) was 105 % of control, the T/C (dose: 10.8 mg/kg/injection, schedule: Q01DX009 (ip), vehicle: saline) was 93 % of control and the T/C (dose: 13.33 mg/kg/injection, schedule: Q01DX009 (ip), vehicle: saline) was 103 % of control. The T/C (dose: 13.33 mg/kg/injection, schedule: Q04DX003 (ip), vehicle: saline) was 103 % of control, the T/C (dose: 18.0 mg/kg/injection, schedule: Q01DX009 (ip), vehicle: saline) was 95 % of control and the T/C (dose: 22.22 mg/kg/injection, schedule: Q04DX003 (ip), vehicle: saline) was 110 % of control. For the same compound, the T/C (dose: 30.0 mg/kg/injection, schedule: Q01DX009 (ip), vehicle: saline) was 90 % of control and the T/C (dose: 37.0 mg/kg/injection, schedule: Q04DX003 (ip), vehicle: saline) was 98 % of control.
COc1cccc2c1C(=N)c1c(O)c3c(c(O)c1C2=O)C[C@@](O)(C(C)=O)C[C@@H]3OC1CC(N)C(O)C(C)O1 (stereo not given in full) was tested, and the T/C (dose: 3.46 mg/kg/injection, schedule: Q04DX003 (ip), vehicle: saline) was 99 % of control, the T/C (dose: 5.76 mg/kg/injection, schedule: Q04DX003 (ip), vehicle: saline) was 102 % of control and the T/C (dose: 9.6 mg/kg/injection, schedule: Q04DX003 (ip), vehicle: saline) was 115 % of control. The T/C (dose: 16.0 mg/kg/injection, schedule: Q04DX003 (ip), vehicle: saline) was 104 % of control.
CCC1(O)CC(OC2CC(N(C)C)C(OC3CC4OC5CC(=O)C(C)OC5OC4C(C)O3)C(C)O2)c2c(cc3c(c2O)C(=O)c2c(O)ccc(O)c2C3=O)C1C(=O)OC (stereo not given) was tested, and the T/C (dose: 0.86 mg/kg/injection, schedule: Q04DX003 (ip), vehicle: water) was 112 % of control, the T/C (dose: 1.3 mg/kg/injection, schedule: Q04DX003 (ip), vehicle: water) was 115 % of control and the T/C [1] was 120 % of control. For the same compound, the T/C [2] was 124 % of control.
With CC[C@H]1CN2CCc3cc(OC)c(OC)cc3[C@@H]2C[C@@H]1C[C@H]1NCCc2c1[nH]c1ccc(OC)cc21 the T/C (dose: 10.8 mg/kg/injection, schedule: Q04DX003 (ip), vehicle: acid diluted with saline) was 108 % of control, the T/C (dose: 18.0 mg/kg/injection, schedule: Q04DX003 (ip), vehicle: acid diluted with saline) was 107 % of control and the T/C (dose: 30.0 mg/kg/injection, schedule: Q04DX003 (ip), vehicle: acid diluted with saline) was 110 % of control.
For O=C(Nc1ccc(C2=NCCCN2)cc1)c1ccc(C(=O)Nc2ccc(C3=NCCCN3)cc2)cc1, the T/C (dose: 10.8 mg/kg/injection, schedule: Q04DX003 (ip), vehicle: other) was 118 % of control and the T/C (dose: 30.0 mg/kg/injection, schedule: Q04DX003 (ip), vehicle: other) was 94 % of control.
COc1cc2cc3c4cc(OC)c(OC)cc4cc[n+]3c(C)c2cc1OC (tested in a mixture with another compound) was tested, and the T/C (dose: 86.4 mg/kg/injection, schedule: Q04DX003 (ip), vehicle: other) was 103 % of control and the T/C (dose: 144.0 mg/kg/injection, schedule: Q04DX003 (ip), vehicle: other) was 95 % of control.
S=c1nc[nH]c2nc[nH]c12 was tested, and the T/C (dose: 43.2 mg/kg/injection, schedule: Q01DX009 (ip), vehicle: alkali diluted with saline) was 100 % of control and the T/C (dose: 72.0 mg/kg/injection, schedule: Q01DX009 (ip), vehicle: alkali diluted with saline) was 105 % of control.
